Data as given in ChEMBL document CHEMBL3792318, “Rapid, Structure-Based Exploration of Pipecolic Acid Amides as Novel Selective Antagonists of the FK506-Binding Protein 51” (J Med Chem, 2016).
Activity calls are given as the source filed them. No cut-off for these calls is given here.

What was measured:
[1] = molecular target: Peptidyl-prolyl cis-trans isomerase FKBP1A (Homo sapiens, UniProt P62942); experiment: (§1) Binding affinity to human FKBP12 FK1 domain incubated for 30 mins using fluorescein-conjugated 2-(5-((2-(3-((R)-3-(3,4-dimethoxyphenyl)-1-((S)-1-(3,3-dimethyl-2-oxopentanoyl)piperidine-2-carbonyloxy)propyl)phenoxy)acetamido)methyl)-6-hydroxy-3-oxo-3H-xanthen-9-yl)benzoic acid by competitive fluorescence polarization assay
Chain of Peptidyl-prolyl cis-trans isomerase FKBP1A (P62942 whole entry, the tested form may be a part): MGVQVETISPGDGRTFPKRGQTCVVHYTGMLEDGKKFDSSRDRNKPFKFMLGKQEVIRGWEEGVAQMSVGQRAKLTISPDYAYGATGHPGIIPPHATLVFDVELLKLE

[2] = molecular target: T1, Peptidyl-prolyl cis-trans isomerase FKBP5 (Homo sapiens, UniProt Q13451); experiment: as §1, with “FKBP51 FK506-binding” for “human FKBP12 FK1”, “domain (1 to 140 amino acids) (unknown origin)” for “domain”
T1 sequence (Q13451 whole entry): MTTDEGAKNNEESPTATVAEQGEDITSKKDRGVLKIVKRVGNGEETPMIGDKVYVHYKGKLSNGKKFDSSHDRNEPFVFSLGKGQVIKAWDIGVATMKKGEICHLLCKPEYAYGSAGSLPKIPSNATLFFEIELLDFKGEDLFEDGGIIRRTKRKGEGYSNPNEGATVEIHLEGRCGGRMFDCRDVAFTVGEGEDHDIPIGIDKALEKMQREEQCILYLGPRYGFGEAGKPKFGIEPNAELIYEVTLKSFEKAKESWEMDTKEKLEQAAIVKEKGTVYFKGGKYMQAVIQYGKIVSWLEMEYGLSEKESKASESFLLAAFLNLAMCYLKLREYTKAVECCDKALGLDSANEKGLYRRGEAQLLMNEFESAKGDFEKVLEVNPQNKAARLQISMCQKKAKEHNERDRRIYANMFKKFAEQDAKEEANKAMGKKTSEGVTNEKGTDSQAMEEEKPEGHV

[3] = molecular target: T1, Peptidyl-prolyl cis-trans isomerase FKBP5
Description: Binding affinity to FKBP51 (unknown origin) by competitive fluorescence polarization assay

[4] = molecular target: T2, Peptidyl-prolyl cis-trans isomerase FKBP4 (Homo sapiens) (UniProt Q02790); experiment: as §1, with “FKBP52 (1 to 140 amino acids) (unknown origin) up to 500 uM” for “human FKBP12 FK1 domain”
T2 sequence (whole entry): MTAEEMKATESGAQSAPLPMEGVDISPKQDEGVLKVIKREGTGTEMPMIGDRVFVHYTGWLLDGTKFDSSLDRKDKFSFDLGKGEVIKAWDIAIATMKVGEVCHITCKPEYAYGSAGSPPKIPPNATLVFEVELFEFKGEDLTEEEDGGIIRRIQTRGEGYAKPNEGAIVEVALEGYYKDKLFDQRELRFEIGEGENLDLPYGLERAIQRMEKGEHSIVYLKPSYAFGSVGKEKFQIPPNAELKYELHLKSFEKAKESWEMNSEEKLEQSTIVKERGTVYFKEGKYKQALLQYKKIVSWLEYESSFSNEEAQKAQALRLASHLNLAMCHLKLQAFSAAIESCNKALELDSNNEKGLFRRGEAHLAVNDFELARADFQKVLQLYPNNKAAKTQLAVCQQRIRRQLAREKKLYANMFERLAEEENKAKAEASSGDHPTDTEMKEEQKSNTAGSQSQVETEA

SMILES	Ki [1] [µM]	Ki [2] [µM]	Ki [3] [µM]	inhibition [4]
COc1cc([C@@H](C(=O)N2CCCC[C@H]2C(=O)NCCC(N)=O)C2CCCCC2)cc(OC)c1OC	49.2	5.6	–	–
COc1cc([C@@H](C(=O)N2CCCC[C@H]2C(=O)NC(C)(C)C(N)=O)C2CCCCC2)cc(OC)c1OC	25.1	2.2	–	–
CC[C@@H](C)[C@@H](NC(=O)[C@@H]1CCCCN1C(=O)[C@H](c1cc(OC)c(OC)c(OC)c1)C1CCCCC1)C(N)=O	8.7	3.2	–	–
COc1cc([C@@H](C(=O)N2CCCC[C@H]2C(=O)NC2(C(N)=O)CC2)C2CCCCC2)cc(OC)c1OC	50.3	19.5	–	–
COc1cc([C@@H](C(=O)N2CCCC[C@H]2C(=O)NC2(C(=O)NCC(N)=O)CCCC2)C2CCCCC2)cc(OC)c1OC	2	0.8	–	–
COc1cc([C@@H](C(=O)N2CCCC[C@H]2C(=O)NCCCC(N)=O)C2CCCCC2)cc(OC)c1OC	22.3	5.7	–	–
COc1cc([C@@H](C(=O)N2CCCC[C@H]2C(=O)N[C@@H](CCO)C(N)=O)C2CCCCC2)cc(OC)c1OC	317	–	–	–
COc1cc([C@@H](C(=O)N2CCCC[C@H]2C(=O)N[C@@H](C(N)=O)C(C)C)C2CCCCC2)cc(OC)c1OC	39.7	5	–	–
CC[C@@H](NC(=O)[C@@H]1CCCCN1C(=O)[C@H](c1cc(OC)c(OC)c(OC)c1)C1CCCCC1)C(N)=O	6	4.5	–	–
COc1cc([C@@H](C(=O)N2CCCC[C@H]2C(=O)N[C@@H](Cc2cnc[nH]2)C(N)=O)C2CCCCC2)cc(OC)c1OC	101	13.4	–	–
COc1cc([C@@H](C(=O)N2CCCC[C@H]2C(=O)N[C@H](C(N)=O)C(C)C)C2CCCCC2)cc(OC)c1OC	11.5	12.6	–	–
COc1ccc(CC[C@@H](NC(=O)[C@@H]2CCCCN2C(=O)[C@H](c2cc(OC)c(OC)c(OC)c2)C2CCCCC2)c2cccc(OCC(=O)O)c2)cc1OC	–	0.043	–	–
COc1cc([C@@H](C(=O)N2CCCC[C@H]2C(=O)N[C@H](C(N)=O)c2ccccc2)C2CCCCC2)cc(OC)c1OC	7.5	–	–	–
CCNC(=O)[C@@H]1CCCCN1C(=O)[C@H](c1cc(OC)c(OC)c(OC)c1)C1CCCCC1	–	55	–	–
COc1cc([C@@H](C(=O)N2CCCC[C@H]2C(=O)N[C@@H](C(N)=O)c2ccccc2)C2CCCCC2)cc(OC)c1OC	12.4	–	–	–
CC[C@H](NC(=O)[C@@H]1CCCCN1C(=O)[C@H](c1cc(OC)c(OC)c(OC)c1)C1CCCCC1)C(N)=O	51.9	3.6	–	–
COc1cc([C@@H](C(=O)N2CCCC[C@H]2C(=O)N[C@H](CCC(N)=O)C(N)=O)C2CCCCC2)cc(OC)c1OC	120	3.4	–	–
COc1cc([C@@H](C(=O)N2CCCC[C@H]2C(=O)N[C@H](CO)C(N)=O)C2CCCCC2)cc(OC)c1OC	46.9	2.8	–	–
COc1cc([C@@H](C(=O)N2CCCC[C@H]2C(=O)N[C@H](C)C(N)=O)C2CCCCC2)cc(OC)c1OC	71.1	10	–	–
COc1cc([C@@H](C(=O)N2CCCC[C@H]2C(=O)N[C@@H](C)C(N)=O)C2CCCCC2)cc(OC)c1OC	30.7	17.1	–	–

SMILES	Ki [1] [µM]	Ki [2] [µM]	Ki [3] [µM]	inhibition [4]
COc1cc([C@@H](C(=O)N2CCCC[C@H]2C(=O)N[C@@H](Cc2ccccc2)C(N)=O)C2CCCCC2)cc(OC)c1OC	10.9	6.5	–	–
COc1cc([C@@H](C(=O)N2CCCC[C@H]2C(=O)N[C@@H](CC(C)C)C(N)=O)C2CCCCC2)cc(OC)c1OC	6.6	8.7	–	–
CC[C@H](C)[C@H](NC(=O)[C@@H]1CCCCN1C(=O)[C@H](c1cc(OC)c(OC)c(OC)c1)C1CCCCC1)C(N)=O	12.1	7.1	–	–
COc1cc([C@@H](C(=O)N2CCCC[C@H]2C(=O)N[C@H](Cc2ccccc2)C(N)=O)C2CCCCC2)cc(OC)c1OC	5.6	1.4	–	–
COc1cc([C@@H](C(=O)N2CCCC[C@H]2C(=O)N[C@@H](CO)C(N)=O)C2CCCCC2)cc(OC)c1OC	–	62.9	–	–
COc1cc([C@@H](C(=O)N2CCCC[C@H]2C(=O)N[C@H](CCO)C(N)=O)C2CCCCC2)cc(OC)c1OC	1.2	–	–	–
C=CC[C@@H]1/C=C(\C)C[C@H](C)C[C@H](OC)[C@H]2O[C@@](O)(C(=O)C(=O)N3CCCC[C@H]3C(=O)O[C@H](/C(C)=C/[C@@H]3CC[C@@H](O)[C@H](OC)C3)[C@H](C)[C@@H](O)CC1=O)[C@H](C)C[C@@H]2OC [TACROLIMUS ANHYDROUS]	–	–	0.079	–
COc1cc([C@@H](C(=O)N2CCCC[C@H]2C(=O)NC2(C(N)=O)CCCC2)C2CCCCC2)cc(OC)c1OC	3.8	0.14	–	inactive
COc1cc([C@@H](C(=O)N2CCCC[C@H]2C(=O)N[C@H](C(N)=O)C2CCCCC2)C2CCCCC2)cc(OC)c1OC	12.8	4.3	–	–
COc1cc([C@@H](C(=O)N2CCCC[C@H]2C(=O)N[C@@H](CCC2CCCCC2)C(N)=O)C2CCCCC2)cc(OC)c1OC	22.5	12	–	–
COc1cc([C@@H](C(=O)N2CCCC[C@H]2C(=O)NC2(C(N)=O)CCOCC2)C2CCCCC2)cc(OC)c1OC	3	1.8	–	–
COc1cc([C@@H](C(=O)N2CCCC[C@H]2C(=O)N[C@@H](CCC(N)=O)C(N)=O)C2CCCCC2)cc(OC)c1OC	–	345	–	–
COc1cc([C@@H](C(=O)N2CCCC[C@H]2C(=O)NC2(C(N)=O)CCCCC2)C2CCCCC2)cc(OC)c1OC	4.3	1.9	–	–
COc1cc([C@@H](C(=O)N2CCCC[C@H]2C(=O)N[C@H](Cc2cnc[nH]2)C(N)=O)C2CCCCC2)cc(OC)c1OC	26.9	3.8	–	–
COc1cc([C@@H](C(=O)N2CCCC[C@H]2C(=O)N[C@@H](CCc2ccccc2)C(N)=O)C2CCCCC2)cc(OC)c1OC	30.1	9.1	–	–
COc1cc([C@@H](C(=O)N2CCCC[C@H]2C(=O)NC2(C(N)=O)CCC2)C2CCCCC2)cc(OC)c1OC	23.4	4.9	–	–
COc1cc([C@@H](C(=O)N2CCCC[C@H]2C(=O)N[C@@H](CC2CCCCC2)C(N)=O)C2CCCCC2)cc(OC)c1OC	6.6	17.8	–	–
COc1cc([C@@H](C(=O)N2CCCC[C@H]2C(=O)NCCCCC(N)=O)C2CCCCC2)cc(OC)c1OC	4.2	3.9	–	–
COc1cc([C@@H](C(=O)N2CCCC[C@H]2C(=O)NC(C)(C)CC(N)=O)C2CCCCC2)cc(OC)c1OC	3.2	3.8	–	–
COc1cc([C@@H](C(=O)N2CCCC[C@H]2C(=O)NCC(N)=O)C2CCCCC2)cc(OC)c1OC	> 300	36.7	–	–
